US20250313535A1, “ALPHA 4 BETA 7 INTEGRIN MODULATORS AND USES THEREOF” (DICE MOLECULES SV, INC., priority 2022, published 2025)

Experiments:
Assay type in all cases: cell-based
[1] = target: T1, α4β1 integrin (Homo sapiens (Human), UniProt P05556+P13612); experiment: Integrin Adhesion Assay: Protocol 2 (VCAM-coated plate, Jurkat cells, CellTiter GLO readout); conditions: determined by at least one of the assays described (protocol not specified)
Protocol: α4β7 and α4β1 inhibition was evaluated in vitro using at least one of the following procedures:
Integrin Adhesion Assay: Protocol 2
VCAM (R&D Systems, 0.1 ug) was diluted in 50 μL PBS, added to each well of an opaque ELISA plate (Thermo), and incubated overnight at 4° C. Coated plates were washed once with PBS and then blocked with 200 μL of assay buffer (10 mM HEPES, 150 mM NaCl, 1 mM MnCl2, 0.1 mM CaCl2), 1% BSA) for 1 hour at 37° C. and 5% CO2. After incubation, buffer was aspirated from the plates and 50 μL of fresh assay buffer was added. Compounds were added by compounds dispenser (Tecan) and DMSO concentration was normalized to 1% across each plate. 50 μL of Jurkat cells (2×10^6 per mL) were added to each well and the plates were incubated for 1 hour at 37° C. and 5% CO2. After incubation, plates were allowed to cool to RT for 10 minutes before being washed four times in assay buffer by an automated plate washer (BioTek). After washing, 100 μL of a 1:1 mixture of assay buffer and CellTiter GLO 2.0 reagent (Promega) were added to each well. Plates were mixed for 2 minutes at 1000 rpm and then allowed to incubate an additional 10 minutes before reading out luminescence on a Tecan Spark plate reader. Raw data was converted to percent inhibition based on DMSO only and control compound wells, and curves were analyzed by 4-parameter fit within Dotmatics software.

[2] = target: T2, α4β7 integrin (Homo sapiens (Human), UniProt P13612+P26010); experiment: Integrin Adhesion Assay: Protocol 1 (MAdCAM-coated plate, RPMI-8866 cells, CellTiter GLO readout)
Procedure, shortened: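 RPMI-8866 cells (2×10^6 per mL) added with compounds (1% DMSO) to MAdCAM-coated wells blocked in HEPES/NaCl buffer with 1 mM MnCl2, 0.1 mM CaCl2, 1% BSA; 1 h at 37° C, 5% CO2. After four washes, bound cells read by CellTiter GLO luminescence; % inhibition vs DMSO and control wells, 4-parameter fit.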

[3] = target: T1, α4β1 integrin; experiment: Integrin Adhesion Assay: Protocol 5 (VCAM-coated plate, RPMI-8866 cells with stable LOF mutation of the ITGB7 gene)
Procedure, shortened: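 RPMI-8866 B cells with CRISPR/Cas9 ITGB7 knockout (clonal, verified by flow cytometry) adhered to VCAM-coated wells for 1 h at 37° C in HEPES/NaCl buffer with 1 mM MnCl2, 0.1 mM CaCl2, 1% BSA, 1% DMSO. Bound cells quantified by CellTiter-Glo luminescence after washing; % inhibition versus DMSO and control, 4-parameter fit.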

[4] = target: T2, α4β7 integrin; experiment: Integrin Adhesion Assay: Protocol 4 (MAdCAM-coated plate, RPMI-8866 cells with stable LOF mutation of the ITGB1 gene)
Procedure, shortened: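 RPMI-8866 cells with CRISPR/Cas9 knockout of ITGB1 (2×10^6/mL) were added to MAdCAM-coated wells with compound (1% DMSO) in HEPES/NaCl buffer with 1 mM MnCl2, 0.1 mM CaCl2 and 1% BSA, then incubated 1 h at 37 °C. After four washes, adherent cells were quantified by CellTiter-Glo luminescence. Percent inhibition versus DMSO and control compound was fitted to 4-parameter curves.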

[5] = integrin adhesion assay, determined by at least one of the assays described (protocol not specified)
[6] = RPMI-8866 cells with stable LOF mutation of the ITGB7 gene, read-out: Mean IC50 α4β1 KO^b
[7] = RPMI-8866 cells with stable LOF mutation of the ITGB1 gene, read-out: Mean IC50 α4β7 KO^a
[8] = Protocol 5, RPMI-8866 cells with LOF mutation of ITGB7, VCAM, read-out: Mean IC50 α4β1 KO
[9] = Protocol 4, RPMI-8866 cells with LOF mutation of ITGB1, MAdCAM, read-out: Mean IC50 α4β7 KO

T1 sequence (P13612 34-1032): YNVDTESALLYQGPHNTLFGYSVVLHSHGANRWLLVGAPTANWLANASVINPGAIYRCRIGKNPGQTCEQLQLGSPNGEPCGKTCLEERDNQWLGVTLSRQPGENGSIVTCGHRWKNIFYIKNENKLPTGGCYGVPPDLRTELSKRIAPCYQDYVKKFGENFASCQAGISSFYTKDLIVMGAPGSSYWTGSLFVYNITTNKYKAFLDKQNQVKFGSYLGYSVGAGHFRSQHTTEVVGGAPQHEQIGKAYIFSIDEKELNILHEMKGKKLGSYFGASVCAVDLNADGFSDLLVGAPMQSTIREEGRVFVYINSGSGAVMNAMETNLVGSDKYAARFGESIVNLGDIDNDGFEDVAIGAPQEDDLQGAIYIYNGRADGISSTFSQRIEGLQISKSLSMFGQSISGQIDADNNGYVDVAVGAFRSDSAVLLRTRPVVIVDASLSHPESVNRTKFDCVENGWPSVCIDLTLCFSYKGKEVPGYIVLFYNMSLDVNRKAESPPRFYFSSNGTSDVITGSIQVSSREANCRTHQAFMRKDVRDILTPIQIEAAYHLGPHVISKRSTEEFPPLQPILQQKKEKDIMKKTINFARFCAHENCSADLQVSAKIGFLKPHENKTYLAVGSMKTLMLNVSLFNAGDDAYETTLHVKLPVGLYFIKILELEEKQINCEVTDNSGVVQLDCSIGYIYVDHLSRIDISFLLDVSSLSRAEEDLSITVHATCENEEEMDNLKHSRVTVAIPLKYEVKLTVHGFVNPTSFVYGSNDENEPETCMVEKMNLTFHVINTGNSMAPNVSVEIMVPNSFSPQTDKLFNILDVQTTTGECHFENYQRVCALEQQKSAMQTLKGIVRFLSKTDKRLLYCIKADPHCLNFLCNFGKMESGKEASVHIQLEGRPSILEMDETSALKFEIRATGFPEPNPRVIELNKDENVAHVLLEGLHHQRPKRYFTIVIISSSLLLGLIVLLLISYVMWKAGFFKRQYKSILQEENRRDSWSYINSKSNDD
T1 sequence (P05556 21-798): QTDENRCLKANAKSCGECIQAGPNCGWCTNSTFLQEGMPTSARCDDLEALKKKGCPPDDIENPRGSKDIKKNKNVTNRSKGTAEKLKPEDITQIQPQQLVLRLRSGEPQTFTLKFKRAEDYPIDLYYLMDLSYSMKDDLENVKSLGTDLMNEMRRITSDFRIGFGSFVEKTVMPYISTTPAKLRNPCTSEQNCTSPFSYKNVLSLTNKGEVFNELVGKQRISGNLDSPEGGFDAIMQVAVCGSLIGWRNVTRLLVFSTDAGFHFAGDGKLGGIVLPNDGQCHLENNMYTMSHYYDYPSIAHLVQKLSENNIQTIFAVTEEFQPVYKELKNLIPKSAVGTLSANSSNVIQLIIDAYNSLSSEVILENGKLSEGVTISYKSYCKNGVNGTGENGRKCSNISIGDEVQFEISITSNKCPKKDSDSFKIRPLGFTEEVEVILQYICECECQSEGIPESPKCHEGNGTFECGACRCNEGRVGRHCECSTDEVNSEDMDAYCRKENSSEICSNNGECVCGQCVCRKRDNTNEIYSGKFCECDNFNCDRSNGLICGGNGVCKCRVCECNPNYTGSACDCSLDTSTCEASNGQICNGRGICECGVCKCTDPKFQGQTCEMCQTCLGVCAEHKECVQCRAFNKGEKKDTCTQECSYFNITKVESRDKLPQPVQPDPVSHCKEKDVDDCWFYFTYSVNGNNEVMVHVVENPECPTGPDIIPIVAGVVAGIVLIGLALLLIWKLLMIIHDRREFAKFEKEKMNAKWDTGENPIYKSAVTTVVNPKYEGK
T2 sequence (P13612 34-1032): as the sequence (P13612 34-1032) above
T2 sequence (P26010 20-798): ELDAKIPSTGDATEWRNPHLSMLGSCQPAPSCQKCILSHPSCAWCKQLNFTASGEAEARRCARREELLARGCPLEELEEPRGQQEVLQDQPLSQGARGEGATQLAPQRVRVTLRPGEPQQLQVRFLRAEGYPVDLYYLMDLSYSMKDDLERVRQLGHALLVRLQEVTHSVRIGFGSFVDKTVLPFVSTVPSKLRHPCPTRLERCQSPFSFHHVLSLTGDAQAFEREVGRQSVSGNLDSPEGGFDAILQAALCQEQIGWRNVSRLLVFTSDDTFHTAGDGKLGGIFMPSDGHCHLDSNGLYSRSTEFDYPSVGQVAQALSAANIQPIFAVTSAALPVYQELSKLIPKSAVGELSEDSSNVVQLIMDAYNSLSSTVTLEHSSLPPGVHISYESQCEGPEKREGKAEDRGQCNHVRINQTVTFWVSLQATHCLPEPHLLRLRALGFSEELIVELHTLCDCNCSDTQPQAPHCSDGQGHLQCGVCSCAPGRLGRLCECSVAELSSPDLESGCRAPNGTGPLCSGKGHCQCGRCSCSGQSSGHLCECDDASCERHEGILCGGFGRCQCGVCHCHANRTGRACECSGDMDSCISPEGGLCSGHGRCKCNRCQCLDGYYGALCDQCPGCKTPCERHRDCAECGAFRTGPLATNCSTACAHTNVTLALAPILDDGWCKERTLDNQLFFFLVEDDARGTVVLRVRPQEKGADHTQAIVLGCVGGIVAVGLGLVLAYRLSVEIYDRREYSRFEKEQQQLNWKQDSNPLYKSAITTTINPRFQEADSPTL

Structure (SMILES) | IC50 [1] | IC50 [2, 5] | further results
CNC(=O)[C@@H]1CC[C@H](c2ccccc2)N1C(=O)c1ccc2cc(C(=O)N[C@@H](Cc3cccc4c(-n5c(=O)ccn(C)c5=O)cccc34)C(=O)O)ccc2c1 [Compound 128] | > 1000 nM | 100 to 1000 nM | 
Cn1ccc(=O)n(-c2cccc3c(C[C@H](NC(=O)[C@@]4(C)CCCN(CC(F)(F)F)CC4)C(=O)O)cccc23)c1=O [Compound 157] | > 1000 nM | 10 to 100 nM | 
Cn1ccc(=O)n(-c2cccc3c(C[C@H](NC(=O)c4c(F)cc(NS(C)(=O)=O)cc4F)C(=O)O)cccc23)c1=O [Compound 111] | 100 to 1000 nM | < 10 nM | 
CC(=O)N1CCC(C)(C(=O)N[C@@H](Cc2cccc3c(-n4c(=O)ccn(C)c4=O)cccc23)C(=O)O)CC1 [Compound 50] | > 1000 nM | 100 to 1000 nM | 
Cn1c(=O)ccn(-c2cccc3c(C[C@H](NC(=O)c4c(F)cccc4F)C(=O)O)cccc23)c1=O [Compound 4] | > 1000 nM | 10 to 100 nM | 
O=C(N[C@@H](Cc1cccc2c(-c3cccc4ccncc34)nccc12)C(=O)O)c1c(F)cc(N2CCOC[C@@H]2C(F)(F)F)cc1F [Compound 220] | > 1000 nM | 10 to 100 nM | 
Cn1ccc(=O)n(-c2cccc3c(C[C@H](NC(=O)C4(C)CCOCC4)C(=O)O)cccc23)c1=O [Compound 10] | 100 to 1000 nM | 10 to 100 nM | 
Cn1ccc(=O)n(-c2cccc3c(C[C@H](NC(=O)C4(F)CCN(CC(F)(F)F)CC4)C(=O)O)cccc23)c1=O [Compound 164] | > 1000 nM | > 1000 nM | 
Cn1ccc(=O)n([C@H]2CCc3c(C[C@H](NC(=O)c4c(F)cccc4F)C(=O)O)cccc32)c1=O (single isomer, unassigned) [Compound 282] | > 1000 nM | 100 to 1000 nM | 
Cn1ccc(=O)n(-c2cccc3c(C[C@H](NC(=O)[C@@H]4[C@@H]5CC[C@H]4CN(CC(F)(F)F)C5)C(=O)O)cccc23)c1=O [Compound 155] | > 1000 nM | > 1000 nM | 
O=C(N[C@@H](Cc1cccc2c(-c3nccc4ccncc34)cccc12)C(=O)O)c1c(F)cc(N2CCOC[C@@H]2C(F)(F)F)cc1F [Compound 23] | > 1000 nM | < 10 nM | 
Cn1ccc(=O)n(-c2cccc3c(C[C@H](NC(=O)[C@H]4C[C@H]5CC[C@@H](C4)N5CC(F)(F)F)C(=O)O)cccc23)c1=O [Compound 154] | > 1000 nM | > 1000 nM | 
Cn1ccc(=O)n(-c2cccc3c(C[C@H](NC(=O)C4(C)CCC(C)(C)CC4)C(=O)O)cccc23)c1=O [Compound 162] | > 1000 nM | 100 to 1000 nM | 
O=C(N[C@@H](Cc1cccc2c(-c3cccc4ccncc34)nccc12)C(=O)O)c1c(F)cc(CN2CCOCC2)cc1F [Compound 223] | > 1000 nM | > 1000 nM | 
CC(C)N1CCC(C)(C(=O)N[C@@H](Cc2cccc3c(-n4c(=O)ccn(C)c4=O)cccc23)C(=O)O)CC1 [Compound 57] | > 1000 nM | 10 to 100 nM | 
CCCS(=O)(=O)Nc1ccc(F)c(C(=O)N[C@@H](Cc2cccc3c(-n4c(=O)ccn(C)c4=O)cccc23)C(=O)O)c1F [Compound 132] | 100 to 1000 nM | < 10 nM | 
O=C(N[C@@H](Cc1cccc2c(-c3nccc4ccncc34)cccc12)C(=O)O)c1c(F)cc(N2CCOC[C@@H]2CC(F)F)cc1CN1CCOCC1 [Compound 46] | > 1000 nM | < 10 nM | 
Cn1ccc(=O)n(-c2cccc3c(C[C@H](NC(=O)[C@@]4(C)CCCN(CC(F)(F)F)CC4)C(=O)O)cccc23)c1=O [Compound 158] | > 1000 nM | 100 to 1000 nM | 
C[C@H]1COCCN1c1cc(F)c(C(=O)N[C@@H](Cc2cccc3c(-c4c(C(F)(F)F)ccn(C)c4=O)nccc23)C(=O)O)c(F)c1 [Compound 216] | > 1000 nM | 10 to 100 nM | 

Structure (SMILES) | IC50 [1] | IC50 [2, 5] | further results
Cn1ccc(=O)n(-c2cccc3c(C[C@H](NC(=O)c4c(F)cccc4CN4CCOCC4)C(=O)O)cccc23)c1=O [Compound 167] | 100 to 1000 nM | < 10 nM | 
Cn1ccc(C(F)(F)F)c(-c2nccc3c(C[C@H](NC(=O)c4c(F)cc(CN5CCOCC5)cc4F)C(=O)O)cccc23)c1=O [Compound 246] | > 1000 nM | 100 to 1000 nM | 
Cn1ccc(C(F)(F)F)c(-c2cccc3c(C[C@H](NC(=O)c4c(F)cccc4F)C(=O)O)cccc23)c1=O [Compound 115] | 100 to 1000 nM | 10 to 100 nM | 
Cn1ccc(=O)n(-c2cccc3c(C[C@H](NC(=O)c4c(F)cc(C#N)cc4F)C(=O)O)cccc23)c1=O [Compound 131] | 100 to 1000 nM | 10 to 100 nM | 
Cn1ccc(C(F)(F)F)c(-c2nccc3c(C[C@H](NC(=O)c4c(F)cc(N5CCOC[C@H]5C5CC5)cc4F)C(=O)O)cccc23)c1=O [Compound 257] | > 1000 nM | 10 to 100 nM | 
CN(C)c1ccc2c(c1)c(C(F)(F)F)c(-c1cccc3c(C[C@H](NC(=O)[C@]4(C)CC[C@@H](N5CCC(F)(F)CC5)CC4)C(=O)O)cccc13)c(=O)n2C [Compound 411] |  |  | IC50 [3, 6]: > 1000 nM; IC50 [2]: 100 to 1000 nM; IC50 [4, 7]: 100 to 1000 nM
CN(C)Cc1ccc2c(c1)c(C(F)(F)F)c(-c1cccc3c(C[C@H](NC(=O)c4c(F)cccc4F)C(=O)O)cccc13)c(=O)n2C [Compound 697] |  |  | IC50 [3, 8]: 100 to 1000 nM; IC50 ([2]; protocol not given): < 10 nM; IC50 [4, 9]: < 10 nM
COc1ccc(CN(C)C)c(OC)c1-c1cccc2c(C[C@H](NC(=O)c3c(C)cccc3F)C(=O)O)cccc12 [Compound 450] |  |  | IC50 [3, 6]: 100 to 1000 nM; IC50 [2]: < 10 nM; IC50 [4, 7]: < 10 nM
Cc1cccc(C)c1-c1ccc(F)c(C(=O)N[C@@H](Cc2cccc3c(-c4c(C(F)(F)F)c5ccccc5n(C)c4=O)cccc23)C(=O)O)c1F [Compound 307] |  |  | IC50 [3, 6]: > 1000 nM; IC50 [2]: 100 to 1000 nM; IC50 [4, 7]: 100 to 1000 nM
CN(C)Cc1cccc2c(-c3cccc4c(C[C@H](NC(=O)c5c(F)cc(N6CCOC[C@@H]6C(F)(F)F)cc5CN5CCCC5)C(=O)O)cccc34)nccc12 [Compound 433] |  |  | IC50 [3, 6]: > 1000 nM; IC50 [2]: < 10 nM; IC50 [4, 7]: < 10 nM
Cc1c(F)ccc(F)c1C(=O)N[C@@H](Cc1cccc2c(-c3c(C(F)(F)F)c4ccccc4n(C)c3=O)cccc12)C(=O)O [Compound 444] |  |  | IC50 [3, 6]: > 1000 nM; IC50 [2]: 10 to 100 nM; IC50 [4, 7]: 10 to 100 nM
Cc1cccnc1-c1ccc(F)c(C(=O)N[C@@H](Cc2cccc3c(-c4c(C(F)(F)F)c5ccccc5n(C)c4=O)cccc23)C(=O)O)c1F [Compound 316] |  |  | IC50 [3, 6]: > 1000 nM; IC50 [2]: 100 to 1000 nM; IC50 [4, 7]: 10 to 100 nM
CN(C)Cc1ccc2c(c1)c(C(F)(F)F)c(-c1cccc3c(C[C@H](NC(=O)c4c(F)cc(C(F)(F)F)cc4F)C(=O)O)cccc13)c(=O)n2C [Compound 699] |  |  | IC50 [3, 8]: 100 to 1000 nM; IC50 ([2]; protocol not given): < 10 nM; IC50 [4, 9]: 10 to 100 nM
Cn1c(=O)c(-c2cccc3c(C[C@H](NC(=O)c4c(F)cc(C5CCOCC5)cc4F)C(=O)O)cccc23)c(C(F)(F)F)c2ccccc21 [Compound 373] |  |  | IC50 [3, 6]: > 1000 nM; IC50 [2]: 100 to 1000 nM; IC50 [4, 7]: 100 to 1000 nM
COc1ccc(CN(C)C)c(OC)c1-c1cccc2c(C[C@H](NC(=O)c3c(F)cccc3CN3CCC(F)(F)CC3)C(=O)O)cccc12 [Compound 452] |  |  | IC50 [3, 6]: 100 to 1000 nM; IC50 [2]: < 10 nM; IC50 [4, 7]: < 10 nM
Cn1c(=O)c(-c2cccc3c(C[C@H](NC(=O)c4c(F)cccc4CN4CCC(F)(F)C4)C(=O)O)cccc23)c(C(F)(F)F)c2ccccc21 [Compound 456] |  |  | IC50 [3, 6]: > 1000 nM; IC50 [2]: 10 to 100 nM; IC50 [4, 7]: 10 to 100 nM
Cc1cccc(F)c1C(=O)N[C@@H](Cc1cccc2c(-c3c(C(F)(F)F)c4cc(N(C)C)ccc4n(C)c3=O)cccc12)C(=O)O [Compound 449] |  |  | IC50 [3, 6]: > 1000 nM; IC50 [2]: 100 to 1000 nM; IC50 [4, 7]: 100 to 1000 nM
Cc1cccc(F)c1C(=O)N[C@@H](Cc1cccc2c(-c3c(C(F)(F)F)ccn(C)c3=O)cccc12)C(=O)O [Compound 460] |  |  | IC50 [3, 6]: > 1000 nM; IC50 [2]: 10 to 100 nM; IC50 [4, 7]: 10 to 100 nM
